Results on eleven compounds are retold here after ChEMBL document CHEMBL1201862, “PubChem BioAssay data set” (2004).

Molecules are shown by their SMILES.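 Five compound concentrations were applied to cells in 96-well plates for 48 hours; endpoints were derived by simple linear interpolation of the resulting dose-response curve. GI50 marks 50% less growth.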 The source made the active and inactive calls. Cut-off read from the data, not from the text of the source: active = GI50 up to about 1.1 µM and inactive = higher.

Common to all, as to test: inhibition of tumour cell growth, NCI panel, 48 h
The test system of test [1] is T47D.
In test [2] the test system is PC-3.
In test [3] the test system is OVCAR-5.
Test [4] deals with TK-10.
In test [5] the test system is CCRF-CEM.
In test [6] the test system is Hs-578T.
Test [7] relates to MCF7.
The test system of test [8] is SW-620.
Test [9] deals with SF-539.
Test [10] deals with MDA-MB-435.
Test [11] concerns LOX IMVI.
Test [12] concerns IGROV-1.
Test [13] has as its system SK-OV-3.
Test [14] relates to UO-31.
For test [15], the system named is ACHN.
For test [16], the system named is 786-0.
Test [17] deals with A549.
The test system of test [18] is OVCAR-4.

As to `S=c1cc(-c2ccc3c(c2)OCO3)s[nH]1`, the GI50 was 89.7 µM (inactive) in [1]; > 100 µM (inactive) in test [2]; > 100 µM (inactive) in [3]; > 100 µM (inactive) in test [4]; > 100 µM (inactive) in [5]; > 100 µM (inactive) in test [6]. Besides, the GI50 in [7], in [8], in test [9], in [10], in test [11] and in [12] was > 100 µM (inactive) in each case. The GI50 in test [13], in [14], in test [15], in test [16], in test [17] and in test [18] was > 100 µM (inactive) each time.
For `OCCN(C1=NCCN1)/[N+](=C/c1ccccc1O)[CH-]c1ccccc1O`, the GI50 in [1], in test [2], in test [3], in test [4], in test [5] and in test [6] was > 100 µM (inactive) in each case. Further, the GI50 in [7], in [8], in test [9], in test [10], in test [11] and in test [12] was > 100 µM (inactive) in each case. Besides, the GI50 in test [13] is > 100 µM (inactive); in [14], 37 µM (inactive); in test [15] it was > 100 µM (inactive); in [16], > 100 µM (inactive); in [17], > 100 µM (inactive); in test [18] it was > 100 µM (inactive).
For the compound `CN[C@@H](Cc1cccc2ccccc12)C(=O)N[C@@H](CC(C)C)B(O)O`, the GI50 in test [1] is < 0.01 µM (active); in test [2] it was < 0.0119 µM (active); in [3] it was < 0.01 µM (active); in test [4], < 0.01 µM (active); in test [5], 0.00516 µM (active); in test [6] it was 0.0143 µM (active). The GI50 in [7], in test [8], in test [9], in test [10], in test [11] and in [12] was < 0.01 µM (active) in each case. Moreover, the GI50 is 0.166 µM (active) in [13]; < 0.01 µM (active) in [14]; < 0.01 µM (active) in test [15]; < 0.01 µM (active) in test [16]; < 0.01 µM (active) in [17]; < 0.01 µM (active) in test [18].
As to `CCN1C(Cl)=NS(=O)(=O)c2ccccc21`, the GI50 in test [1] is 30 µM (inactive); in test [2] it was 50 µM (inactive); in test [3], 26.4 µM (inactive); in [4], 18.5 µM (inactive); in test [5] it was 3.9 µM (inactive); in [6], 36.9 µM (inactive). In addition, the GI50 in test [7] was 27.5 µM (inactive); in test [8], 28.1 µM (inactive); in [9] it was 15.9 µM (inactive); in [10], 49.7 µM (inactive); in [11], 15.7 µM (inactive); in test [12], 23.1 µM (inactive). The GI50 in test [13] was 71.6 µM (inactive); in test [14], 16.9 µM (inactive); in test [15], 16.5 µM (inactive); in [16], 19.3 µM (inactive); in test [17], > 100 µM (inactive); in test [18] it was 19.4 µM (inactive).
In the case of `CCc1ccccc1NC(=O)C(=O)CC(=O)c1sc(Nc2ccccc2Cl)nc1C`, the GI50 in test [1] is 35.7 µM (inactive); in [2], 26.9 µM (inactive); in test [3] it was > 100 µM (inactive); in test [4] it was 59.6 µM (inactive); in test [5], 18 µM (inactive); in test [6], 46.5 µM (inactive). Further, the GI50 in test [7] is 18.2 µM (inactive); in test [8], 25.6 µM (inactive); in test [9] it was 24.4 µM (inactive); in test [10], 25.6 µM (inactive); in test [11] it was 19.7 µM (inactive); in test [12], 40 µM (inactive). Moreover, the GI50 in [13] was 24.2 µM (inactive); in test [14], 32.7 µM (inactive); in [15], 30.5 µM (inactive); in test [16] it was 27.7 µM (inactive); in test [17], 24 µM (inactive); in test [18] it was 36.8 µM (inactive).
For the compound `COC(=O)c1ccc(C)cc1CC1Cc2ccc(C)cc2C1=O` (stereo not drawn), the GI50 in [1] is 5.55 µM (inactive); in test [2], 12.1 µM (inactive); in test [3], 19.5 µM (inactive); in test [4], 13 µM (inactive); in [5] it was 9.91 µM (inactive); in [6] it was 15 µM (inactive). Further, the GI50 was 4.39 µM (inactive) in test [7]; 4.17 µM (inactive) in test [8]; 5.6 µM (inactive) in test [9]; 1.63 µM (inactive) in test [10]; 5.25 µM (inactive) in test [11]; 7.87 µM (inactive) in test [12]. The GI50 in [13] is 9.08 µM (inactive); in test [14] it was 19.9 µM (inactive); in [15], 22 µM (inactive); in test [16] it was 13.7 µM (inactive); in [17] it was 11 µM (inactive); in test [18] it was 16.1 µM (inactive).
As to `O=C1Oc2ccccc2C(=O)/C1=C\Nc1nc(-c2ccc(O)c(O)c2)cs1`, the GI50 in test [1] is 4.55 µM (inactive); in test [2], 3.24 µM (inactive); in [3], 16.2 µM (inactive); in test [4], 3.26 µM (inactive); in test [5], 1.23 µM (inactive); in test [6], 15.3 µM (inactive). Besides, the GI50 in [7] is 3.94 µM (inactive); in test [8], 2.44 µM (inactive); in test [9] it was 5.46 µM (inactive); in [10] it was 4.88 µM (inactive); in test [11], 3.55 µM (inactive); in [12] it was 7.76 µM (inactive). Besides, the GI50 in [13] is 7.24 µM (inactive); in test [14], 2.79 µM (inactive); in test [15], 2.88 µM (inactive); in test [16] it was 2.54 µM (inactive); in test [17] it was 6.67 µM (inactive); in test [18], 10.7 µM (inactive).
With `CCOC(=O)c1ccc(NC(=O)Oc2ccc3c(C)cc(=O)oc3c2)cc1`, the GI50 in [1] was 22.2 µM (inactive); in [2] it was 38.4 µM (inactive); in test [3] it was 23.1 µM (inactive); in test [4], > 100 µM (inactive); in test [5], 22.6 µM (inactive); in [6] it was 29.6 µM (inactive). Also, the GI50 is 30.8 µM (inactive) in test [7]; 36.2 µM (inactive) in test [8]; > 100 µM (inactive) in test [9]; 35.6 µM (inactive) in [10]; 34.5 µM (inactive) in [11]; 38.5 µM (inactive) in test [12]. For the same compound, the GI50 in [13] was 29.6 µM (inactive); in [14], 33.1 µM (inactive); in test [15], 41.4 µM (inactive); in test [16], 45.6 µM (inactive); in test [17], 43.7 µM (inactive); in [18] it was 50.1 µM (inactive).
For the compound `CC1(O)CC23CC1CCC2(C)C12CCCC(C)(C(=O)O1)C2CC3O` (stereo not drawn), the GI50 in test [1], in test [2], in test [3], in [4], in test [5] and in [6] was > 100 µM (inactive) throughout. Further, the GI50 in test [7], in test [8], in [9], in [10], in [11] and in test [12] was > 100 µM (inactive) in each case. For the same compound, the GI50 in test [13], in test [14], in [15], in test [16], in test [17] and in [18] was > 100 µM (inactive) in each case.
Regarding `CN1C2CCC1CC(=CCOC(c1ccc(F)cc1)c1ccc(F)cc1)C2`, the GI50 in test [1] was 17.6 µM (inactive); in [2], 16.1 µM (inactive); in test [3] it was 17.4 µM (inactive); in [4] it was 14.9 µM (inactive); in test [5], 37 µM (inactive); in test [6] it was 11.9 µM (inactive). Further, the GI50 in [7] is 16.6 µM (inactive); in [8] it was 30.8 µM (inactive); in test [9] it was 16.4 µM (inactive); in [10], 12.8 µM (inactive); in test [11], 16.8 µM (inactive); in [12], 15.7 µM (inactive). Further, the GI50 is 17 µM (inactive) in [13]; 9.91 µM (inactive) in test [14]; 17.4 µM (inactive) in test [15]; 14 µM (inactive) in test [16]; 17.1 µM (inactive) in test [17]; 16.2 µM (inactive) in test [18].
On to `C[C@@H]1C(=O)CC2(O)[C@@]13C[C@@H](OC(=O)[C@@H]3O)[C@@H](C)[C@@]21COC1=O` (stereo partly drawn), for which the GI50 in test [1], in test [2], in test [3], in test [4], in test [5] and in test [6] was > 100 µM (inactive) throughout. Also, the GI50 in test [7], in test [8], in test [9], in [10], in test [11] and in test [12] was > 100 µM (inactive) in each case. For the same compound, the GI50 in [13], in test [14], in [15], in test [16], in test [17] and in test [18] was > 100 µM (inactive) in each case.
